biological target: T1, glucosylceramide synthase (Homo sapiens, UniProt Q16739); test: Glucosylceramide synthase (GCS) enzyme assay, microsome fraction, C8 glucosylceramide quantified by Rapidfire MS/MS; format: biochemical; conditions: test compound 10 μM; 1.7 μM UDP-glucose, 3 μM C8 ceramide; room temperature 60 min
T1 construct: made in house; host or cells: Expi293F cells (transient expression, pcDNA3.3-TOPO vector); microsome fraction used as enzyme source
T1 sequence (Q16739 1-394): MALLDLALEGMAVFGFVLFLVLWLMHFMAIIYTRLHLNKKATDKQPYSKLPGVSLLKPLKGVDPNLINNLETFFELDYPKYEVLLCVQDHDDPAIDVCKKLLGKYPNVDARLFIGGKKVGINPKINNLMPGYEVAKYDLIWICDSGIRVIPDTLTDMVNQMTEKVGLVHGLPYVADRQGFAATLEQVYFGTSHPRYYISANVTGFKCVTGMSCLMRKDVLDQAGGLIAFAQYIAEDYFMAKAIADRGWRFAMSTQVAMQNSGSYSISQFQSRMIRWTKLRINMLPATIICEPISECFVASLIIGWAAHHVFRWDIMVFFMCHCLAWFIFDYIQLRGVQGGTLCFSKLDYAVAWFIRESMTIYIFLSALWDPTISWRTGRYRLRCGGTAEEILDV
Method in brief: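 Test compound, 10 μM final, was run against human GCS from transfected Expi293F microsome fractions, using substrate solution of 6 μM C8 ceramide (in DOPC liposomes) plus 3.4 μM UDP-glucose, pH 7.5 Tris buffer, 60 min, room temperature. Product C8 glucosylceramide measured by Rapidfire MS/MS against an internal standard, % inhibition referenced to no-enzyme and DMSO wells.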

With `O=C1c2ccnc(-c3ccccc3OCC(F)(F)F)c2CN1c1ccc(C(O)C(F)(F)F)nc1` (single isomer, unassigned) [Example 277, (R or S)-4-[2-(2,2,2-trifluoroethoxy)phenyl]-2-[6-(2,2,2-trifluoro-1-hydroxyethyl)pyridin-3-yl]-2,3-dihydro-1H-pyrrolo[3,4-c]pyridin-1-one] the “GCS enzyme inhibitory rate at 10 μM (%) (% of control)” value was 98%.

same assay, conditions: test compound 10 μM; 1.7 μM UDP-glucose, 3 μM C8 ceramide; room temperature 60 min; read-out: GCS enzyme inhibitory rate at 10 μM (%) (% of control)

Compared with `CS(=O)(=O)c1ccc(N2Cc3c(ccnc3-c3ccccc3OCC(F)(F)F)C2=O)nc1` [Example 268, 2-[5-(methanesulfonyl)pyridin-2-yl]-4-[2-(2,2,2-trifluoroethoxy)phenyl]-2,3-dihydro-1H-pyrrolo[3,4-c]pyridin-1-one], `CC(C)(O)COc1ccc(N2Cc3c(ccnc3-c3ccccc3OCC(F)(F)F)C2=O)cn1` [Example 233, 2-[6-(2-hydroxy-2-methylpropoxy)pyridin-3-yl]-4-[2-(2,2,2-trifluoroethoxy)phenyl]-2,3-dihydro-1H-pyrrolo[3,4-c]pyridin-1-one] is higher in inhibition at 10 µM: 91% for the first, 96% for the second.

First: CC(C)(O)c1ccc(N2Cc3c(ccnc3-c3ccncc3OCC(F)(F)F)C2=O)cc1F [Example 272, 2-[3-fluoro-4-(2-hydroxypropan-2-yl)phenyl]-4-[3-(2,2,2-trifluoroethoxy)pyridin-4-yl]-2,3-dihydro-1H-pyrrolo[3,4-c]pyridin-1-one]
Second: CC(C)(O)COc1cnc(N2Cc3c(ccnc3-c3ccc(F)cc3OCC(F)(F)F)C2=O)cn1 [Example 299, 4-[4-fluoro-2-(2,2,2-trifluoroethoxy)phenyl]-2-[5-(2-hydroxy-2-methylpropoxy)pyrazin-2-yl]-2,3-dihydro-1H-pyrrolo [3,4-c]pyridin-1-one]
The inhibition at 10 µM of the first is lower: 96% for the first, 97% for the second.

`CC(O)(c1ccc(N2Cc3c(ccnc3-c3ccccc3OCC(F)(F)F)C2=O)cc1)C(F)F` (racemic) [Example 308, rac-2-[4-(1,1-difluoro-2-hydroxypropan-2-yl)phenyl]-4-[2-(2,2,2-trifluoroethoxy)phenyl]-2,3-dihydro-1H-pyrrolo[3,4-c]pyridin-1-one] and `O=C1c2ccnc(-c3ccccc3OCC(F)(F)F)c2CN1c1ccc(C2(F)COC2)cc1` [Example 214, 2-[4-(3-fluorooxetan-3-yl)phenyl]-4-[2-(2,2,2-trifluoroethoxy)phenyl]-2,3-dihydro-1H-pyrrolo[3,4-c]pyridin-1-one] are the same in inhibition at 10 µM: 100% for the first, 100% for the second.

First: O=C1c2ccnc(-c3ccc(F)cc3OC(F)F)c2CN1c1ccc(OC(F)(F)F)cn1 [Example 57, 4-[2-(difluoromethoxy)-4-fluorophenyl]-2-[5-(trifluoromethoxy)pyridin-2-yl]-2,3-dihydro-1H-pyrrolo[3,4-c]pyridin-1-one]
Second: COCCOc1cc(F)ccc1-c1nccc2c1CN(c1ccc(OC(F)F)nc1)C2=O [Example 113, 2-[6-(difluoromethoxy)pyridin-3-yl]-4-[4-fluoro-2-(2-methoxyethoxy)phenyl]-2,3-dihydro-1H-pyrrolo[3,4-c]pyridin-1-one]
The inhibition at 10 µM of the first is higher: 74% for the first, 66% for the second.

Going from `Cn1cc2c(c(-c3ccc(F)cc3OCC(F)(F)F)c1=O)CN(c1ccc(OC(F)F)cc1)C2=O` [Example 196, 2-[4-(difluoromethoxy)phenyl]-7-[4-fluoro-2-(2,2,2-trifluoroethoxy)phenyl]-5-methyl-1H-pyrrolo[3,4-c]pyridine-3,6(2H,5H)-dione] to `O=C(c1ccc(N2Cc3c(ccnc3-c3ccc(F)cc3OCC(F)(F)F)C2=O)cc1)N1CC(F)(F)C1` [Example 181, 2-[4-(3,3-difluoroazetidine-1-carbonyl)phenyl]-4-[4-fluoro-2-(2,2,2-trifluoroethoxy)phenyl]-2,3-dihydro-1H-pyrrolo[3,4-c]pyridin-1-one], the inhibition at 10 µM falls from 100% to 89%.

Compared with `O=C1c2ccnc(-c3ccc(F)cc3OCC(F)(F)F)c2CN1c1ccc(C2(O)CCC2)cc1` [Example 163, 4-[4-fluoro-2-(2,2,2-trifluoroethoxy)phenyl]-2-[4-(1-hydroxycyclobutyl)phenyl]-2,3-dihydro-1H-pyrrolo[3,4-c]pyridin-1-one], `O=C1c2ccnc(-c3ccc(F)cc3OCC(F)(F)F)c2CN1c1ccc(C2(O)CCOC2)c(F)c1` (racemic) [Example 223, rac-2-[3-fluoro-4-(3-hydroxyoxolan-3-yl)phenyl]-4-[4-fluoro-2-(2,2,2-trifluoroethoxy)phenyl]-2,3-dihydro-1H-pyrrolo[3,4-c]pyridin-1-one] is lower in inhibition at 10 µM: 100% for the first, 96% for the second.

Going from `COc1cc(C(=O)N2CCC2)ccc1-c1nccc2c1CN(c1ccc(F)cc1)C2=O` [Example 120, 4-[4-(azetidine-1-carbonyl)-2-methoxyphenyl]-2-(4-fluorophenyl)-2,3-dihydro-1H-pyrrolo[3,4-c]pyridin-1-one] to `O=C1c2ccnc(-c3ccccc3N3CCOCC3)c2CN1c1ccc(F)cc1` [Example 30, 2-(4-fluorophenyl)-4-[2-(morpholin-4-yl)phenyl]-2,3-dihydro-1H-pyrrolo[3,4-c]pyridin-1-one], the inhibition at 10 µM rises from 61% to 91%.

Compared with `CC(C)(O)c1cc2c(c(-c3ccccc3OCC(F)F)n1)CN(c1ccc(OCC(F)(F)F)cc1)C2=O` [Example 354, 4-[2-(2,2-difluoroethoxy)phenyl]-6-(2-hydroxypropan-2-yl)-2-[4-(2,2,2-trifluoroethoxy)phenyl]-2,3-dihydro-1H-pyrrolo[3,4-c]pyridin-1-one], `CC(C)(O)COc1ccc(N2Cc3c(ccnc3-c3ccccc3OCC(F)F)C2=O)nc1` [Example 306, 4-[2-(2,2-difluoroethoxy)phenyl]-2-[5-(2-hydroxy-2-methylpropoxy)pyridin-2-yl]-2,3-dihydro-1H-pyrrolo [3,4-c]pyridin-1-one] is lower in inhibition at 10 µM: 100% for the first, 99% for the second.

Compared with `O=C1c2ccnc(-c3ccc(F)cc3OCC(F)(F)F)c2CN1c1cnn(CC2(F)COC2)c1` [Example 202, 2-{1-[(3-fluorooxetan-3-yl)methyl]-1H-pyrazol-4-yl}-4-[4-fluoro-2-(2,2,2-trifluoroethoxy)phenyl]-2,3-dihydro-1H-pyrrolo[3,4-c]pyridin-1-one], `CC(C)(C)[Si](C)(C)OC1(c2ccc(N3Cc4c(ccnc4-c4ccccc4OCC(F)(F)F)C3=O)cc2)CC1` [Example 221, 2-[4-(1-{[tert-butyl(dimethyl)silyl]oxy}cyclopropyl)phenyl]-4-[2-(2,2,2-trifluoroethoxy)phenyl]-2,3-dihydro-1H-pyrrolo[3,4-c]pyridin-1-one] is higher in inhibition at 10 µM: 95% for the first, 99% for the second.

Compared with `O=C1c2ccnc(-c3ccccc3OCC(F)F)c2CN1c1ccc(C2(O)CCC2)cc1` [Example 290, 4-[2-(2,2-difluoroethoxy)phenyl]-2-[4-(1-hydroxycyclobutyl)phenyl]-2,3-dihydro-1H-pyrrolo[3,4-c] pyridin-1-one], `CC(C)(O)c1ccc(N2Cc3c(ccnc3-c3ccccc3OCC(F)F)C2=O)nc1` [Example 288, 4-[2-(2,2-difluoroethoxy)phenyl]-2-[5-(2-hydroxypropan-2-yl)pyridin-2-yl]-2,3-dihydro-1H-pyrrolo [3,4-c]pyridin-1-one] is lower in inhibition at 10 µM: 100% for the first, 99% for the second.

Work on `COC(=O)c1ccc(N2CC3=C(OC[C@H](C)N=C3c3ccccc3OCC(F)(F)F)C2=O)cc1` [Example 331, methyl 4-{(3S)-3-methyl-8-oxo-5-[2-(2,2,2-trifluoroethoxy)phenyl]-2,3,6,8-tetrahydro-7H-pyrrolo [3,4-f][1,4]oxazepin-7-yl}benzoate] yielded an inhibition at 10 µM of 91%.
